Laboratory results taken from patent US4900815A, “Sulfated polysaccharide DS4152” (Daiichi Seiyaku Co., Ltd., priority 1986, dated 1990).
Several values for one entry are separate records, joined by “and”; a condition that tells them apart may be missing. Equal values may be shown once. Where a name gives a salt, the structure may show the parent alone.

Experiments:
[1] = tested on: angiogenesis of the chick CAM; assay: CAM angiogenesis inhibition, various steroids alone or with DS4152; type: in vivo; settings: for degree of increase: ID50 alone vs. in the presence of 10 ng of DS4152; for ID50, used in combination with DS4152: in the presence of 10 ng of DS4152; for ID50, alone: steroid alone
[2] = tested on: vascularization in chorioallantoic membrane (CAM) of chick embryo, rabbit cornea and hamster cheek pouches; settings: cited from earlier work
[3] = tested on: CAM vascularization; assay: Antiangiogenic Effects (Ex Vivo) of steroids with or without DS4152; set-up: species or system chick (blood from male ICR mice)
Method: (§1) Male ICR mice were orally administered with a solution of DS4152 dissolved in physiological saline. A saline suspension of a steroid was administered orally or intramuscularly, either in combination with DS4152 or alone. Blood samples collected after 6 hours were prevented from coagulation with a 0.313% aqueous solution of sodium citrate. Each blood sample was added to the 5 day CAM in the same manner as in the direct method. The inhibitory effects were judged after two days. Results were expressed by inhibition ratios (%) of CAM vascularization of each group to that of control group with a blood sample collected from the mice with saline. (Table 11).

[4] = tested on: CAM angiogenesis; assay: CAM Angiogenesis Inhibition Test (Direct Method), antiestrogens with or without DS4152; type: in vivo, chick
Method: (§2) Using chick embryos, a test was carried out in accordance with the following method, which was a partial modification of the Taylor-Folkman'smethod Nature, 297, 307 (1982)].
(§3) Either DS4152 or heparin dissolved in physiological saline was added to the CAM of each 4-5 day old fertilized chicken 1 egg (species: NORIN CROSS) and then the eggs were incubated at 37° C.
(§4) Two days after the addition of the agent, the degree of the CAM vascularization was compared with that of a control to which physiological saline was only added. The 50% vascularization inhibition dose (ID50) was calculated by the probit method.
(§5) A test was conducted in the same manner as in Example 2. Antiestrogens were separately dissolved or suspended in physiological saline and were added either alone or together with DS4152. The eggs with the agents were incubated at 37° C. Two days after the addition of the agents, the degrees of development of CAM vessels were individually compared with that of a control to which physiological saline was only added.

[5] = tested on: CAM angiogenesis; assay: CAM Angiogenesis Inhibition Test (Direct Method), DS4152 and heparins with tamoxifen citrate; type: in vivo, chick; settings: 1 μg, alone
Method: as §2, §3, §4, §5

[6] = tested on: CAM vascularization; assay: Antiangiogenic Effects (Ex Vivo) of tamoxifen with or without DS4152; set-up: species or system chick (blood from mice); settings: for Inhibition rate of angiogenesis: tamoxifen citrate 100 mg/kg s.c.
Method: as §1
In the same manner as in Example 8, antiangiogenic effects of tamoxifen were examined with or without DS4152.

[7] = tested on: mouse mammary carcinoma MM46; assay: Antitumor Test, MM46, tamoxifen citrate with DS4152; type: in vivo, mouse (male C3H/He)
Method: (§6) C3H/He male mice (5 weeks old) were each inoculated subcutaneously with 4×10^6 cells of mouse mammary carcinoma MM46. Mice were randomized after measuring the diameters of the resultant tumors on the 7th day. In addition, male ICR mice (5 weeks old) were each inoculated subcutaneously with 1×10^6 cells of Sarcoma 180 (S180). On the 3rd days, the mice were randomized. A saline suspension of tamoxifen citrate was administered once a day for 4 days to the MM46-bearing mice on the 7th day after inoculation and to the S180-bearing mice on the 3rd day after inoculation. DS4152 and heparins were individually dissolved in physiological saline and administered either orally or subcutaneously once a day for 4 days at a dose of 30 mg/kg/day or 300 mg/kg/day. On the 5th day after the beginning of the administration, the animals were sacrificed. The tumor weights were compared with those of the control mice administered only with physiological saline (Table 15).

[8] = tested on: Sarcoma 180 (S180); assay: Antitumor Test, S180, tamoxifen citrate with DS4152 or heparins; type: in vivo, mouse (male ICR)
Method: as §6

[9] = antiestrogen 1 μg, DS4152 0.01 μg
[10] = antiestrogen 10 μg, DS4152 0 μg
[11] = antiestrogen 10 μg, DS4152 0.01 μg
[12] = tamoxifen citrate 100 mg/kg s.c. alone

Row | Structure (SMILES) | degree of increase [1] [times] | ID50, used in combination with DS4152 [1] [μg/embryo] | ID50, alone [1] [μg/embryo] | percent inhibition of CAM vascularization ([4]; antiestrogen 1 μg, DS4152 0 μg) [%] | percent inhibition of CAM vascularization [4, 9] [%] | percent inhibition of CAM vascularization [4, 10] [%] | percent inhibition of CAM vascularization [4, 11] [%] | other results
1 | C[C@H]1C[C@@H]2[C@H]([C@@H](O)C[C@@]3(C)[C@H]2CC[C@]3(O)C(=O)CO)[C@@]2(C)C=CC(=O)C=C12 [6α-Methylprednisolone] | 38.3 | 0.03 | 1.15 |  |  |  |  | suppression of experimentally induced vascularization [2]: effective
2 | C[C@@]12CCC[C@H]1[C@@H]1CC[C@H]3CCCC[C@]3(C)[C@H]1CC2 [5α-Androstane] | 8.0 | 0.29 | 2.32 |  |  |  |  | 
3 | C[C@]12CCC(=O)C=C1CC[C@@H]1[C@@H]2[C@@H](O)C[C@@]2(C)[C@H]1CC[C@]2(O)C(=O)CO [Hydrocortisone] | 6.9 | 0.16 | 1.10 |  |  |  |  | 
4 | C[C@]12C[C@H]3S[C@H]3C[C@@H]1CC[C@@H]1[C@@H]2CC[C@]2(C)[C@@H](O)CC[C@@H]12 [Epithiostanol] |  |  |  |  |  |  |  | Inhibition rate of angiogenesis ([3]; steroid i.m. 5 mg/kg, DS4152 0): 4.0%; Inhibition rate of angiogenesis ([3]; steroid i.m. 5 mg/kg, DS4152 30 mg/kg p.o.): 5.2%; Inhibition rate of angiogenesis ([3]; steroid i.m. 50 mg/kg, DS4152 0): 13.4%; Inhibition rate of angiogenesis ([3]; steroid i.m. 50 mg/kg, DS4152 30 mg/kg p.o.): 23.4%; Inhibition rate of angiogenesis ([3]; steroid i.m. 100 mg/kg, DS4152 0): 24.2%; Inhibition rate of angiogenesis ([3]; steroid i.m. 100 mg/kg, DS4152 30 mg/kg p.o.): 37.6%
5 | C[C@H]1C[C@H]2[C@@H]3CCC4=CC(=O)C=C[C@]4(C)[C@@]3(F)[C@@H](O)C[C@]2(C)[C@@]1(O)C(=O)CO [Betamethasone] | 16.0 | 0.05 | 0.80 |  |  |  |  | 
6 | CCN(CC)CCOc1ccc(C(=C(Cl)c2ccccc2)c2ccccc2)cc1 [Clomiphene citrate] |  |  |  | -3.9 | 32.6 | -11.4 | 42.0 | 
7 | CC/C(=C(\c1ccccc1)c1ccc(OCCN(C)C)cc1)c1ccccc1 [Tamoxifen citrate] |  |  |  | -0.4 | 56.2 | 2.9 | 70.5 | effect on vascularization [5]: too little to affect the vascularization; Inhibition rate of angiogenesis ([6]; DS4152 0): -6.1% and -11.0%; Inhibition rate of angiogenesis ([6]; DS4152 30 mg/kg oral): 40.0%; Inhibition rate of angiogenesis ([6]; DS4152 30 mg/kg subcutaneous): 61.2%; influence on vascularization of CAM ([6]; tamoxifen citrate only): no influence; inhibition of CAM vascularization ([6]; tamoxifen with subcutaneous or oral DS4152 (30 mg/kg)): inhibited markedly the CAM vascularization; effect on growth of mammary carcinoma MM46 ([7]; single administration (alone)): inhibited; T/C [7, 12]: 6.6%; Tumor weight, mean ± S.D. ([7]; tamoxifen citrate 100 mg/kg s.c. alone, p < 0.05): 273 ± 27 mg; effect on growth of sarcoma S180 ([8]; administered alone): did not affect the growth; T/C [8, 12]: 97%; Tumor weight, mean ± S.D. [8, 12]: 298 ± 31 mg
8 | CC(=O)[C@H]1CC[C@H]2[C@@H]3CCC4=CC(=O)CC[C@]4(C)[C@H]3CC[C@]12C [Progesterone] | 2.1 | 0.49 | 1.02 |  |  |  |  | 
9 | COc1ccc2c(c1)CCC(c1ccccc1)=C2c1ccc(OCCN2CCCC2)cc1 [Nafoxidine chloride] |  |  |  | -4.3 | 23.1 | -3.2 | 31.6 | 
10 | CC(=O)O[C@]1(C(C)=O)CC[C@H]2[C@@H]3C[C@H](C)C4=CC(=O)CC[C@]4(C)[C@H]3CC[C@@]21C [Medroxyprogesterone acetate] | 2.7 | 0.42 | 1.12 |  |  |  |  | 
